Columns and labels:
δ-opioid receptor = biological target: T1, δ-opioid receptor (Mus musculus, UniProt P32300); experiment: [35S]GTPγS binding assay in NG108-15 cell membranes (delta opioid functional assay); format: biochemical; details: for inhibition at 10 µM: 10 μM compound, read-out: GTPγS δ-opioid receptor % Inh @10 μM; for EC50: read-out: GTPγS δ-opioid receptor EC50
T1 construct: NG108-15 cell membranes were purchased from Applied Cell Sciences (Rockville, Md.); host or cells: NG108-15 cell membranes (purchased)
Description: Methods: NG108-15 cell membranes were purchased from Applied Cell Sciences (Rockville, Md.). 5 mg/mL of membrane protein was suspended in 10 mM TRIS-HCl pH 7.2, 2 mM EDTA, 10% sucrose. Membranes were maintained at 4-8° C. A 1 mL volume of membranes was added into 10 mL cold binding assay buffer. The assay buffer contained 50 mM Tris, pH 7.6, 5 mM MgCl2, 100 mM NaCl, 1 mM DTT and 1 mM EGTA. The membrane suspension was homogenized twice with a Polytron, and centrifuged at 3000 rpm for 10 min. The supernatant was then centrifuged at 18,000 rpm for 20 min. Ten mL of assay buffer was added into the pellet containing tube. The pellet and buffer were mixed with a Polytron.
Incubation procedure: The pellet membranes (75 μg/mL) were preincubated with SPA beads (10 mg/mL) at 25° C. for 45 min in the assay buffer. The SPA beads (5 mg/mL) coupled with membranes (37.5 μg/mL) were then incubated with 0.1 nM [^35S]GTPγS in the same Tris buffer containing 100 μM GDP in total volume of 200 μL. 200 nM of receptor agonists was used to stimulate [^35S]-GTPγS binding. The basal binding was tested in the absence of agonists and non-specific binding was tested in the presence of 10 μM unlabeled GTPγS.
Data % of Basal=(stimulated−non specific)*100/(basal−non specific). Relative Efficacy of a compound at 200 nM=(% of Basal of test compound at 200 nM)/(Calculated Max of SNC80 dose response. Curve in prism).

mu opioid receptor = biological target: T2, mu opioid receptor (Rattus norvegicus, UniProt P33535); experiment: Rat brain mu opioid receptor binding assay; details: rat forebrain membranes; ~0.8 nM [3H]DAMGO; read-out: μ-binding Ki
T2 construct: from tissue; host or cells: forebrain of male Wistar rats
Description: (§1) Procedure: Male, Wistar rats (150-250 g, VAF, Charles River, Kingston, N.Y.) were killed by CO2, and their brains were removed and placed immediately in ice cold Tris HCl buffer (50 mM, pH 7.4). The forebrains were separated from the remainder of the brain by a coronal transection, beginning dorsally at the colliculi and passing ventrally through the midbrain-pontine junction. After dissection, the forebrains were homogenized in Tris buffer in a Teflon®-glass homogenizer. The homogenate was diluted to a concentration of 1 g of forebrain tissue per 80 mL Tris and centrifuged at 39,000×g for 10 min. The pellet was resuspended in the same volume of Tris buffer containing 5 mM MgCl2 with several brief pulses from a Polytron homogenizer. This particulate preparation was used for the mu opioid binding assays. Following incubation with the mu selective peptide ligand, ˜0.8 nM [^3H]DAMGO, at 25° C. for 2.5 h in a 96-well plate with total assay volume of 1 mL, the plate contents were filtered through Wallac filtermat B sheets on a Tomtec 96-well harvester. The filters were rinsed three times with 2 mL of 10 mM HEPES (pH 7.4) and dried in a 650 W microwave oven for 1.75 min twice. To each sample area 2×40 μL of Betaplate Scint scintillation fluid (LKB) was added and the radioactivity was quantified on a LKB (Wallac) 1205 BetaPlate liquid scintillation counter.
(§2) Analysis: The data from the scintillation counter were used to calculate either the % inhibition compared to control binding (when only a single concentration of test compound was evaluated) or a Ki value (when a range of concentrations was tested). Percent inhibition was calculated as: [(total dpm−test compound dpm)/(total dpm−nonspecific dpm)]*100. Kd and Ki values were calculated using GraphPad PRISM data analysis program.

delta opioid receptor = biological target: T3, delta opioid receptor (Rattus norvegicus, UniProt P33533); experiment: Rat brain delta opioid receptor binding assay; details: rat forebrain membranes; ~4 nM [3H]DPDPE; read-out: δ-binding (DPDPE ligand) Ki
T3 construct: from tissue; host or cells: forebrain of male Wistar rats
Description: as §1, with “the delta” for “the mu”, “peptide ligand ˜4” for “peptide ligand, ˜0.8”, “nM [^3H]DPDPE or 0.25 nM [^3H]naltrindole” for “nM [^3H]DAMGO,”, “total” for “total assay”, “(pH 7.4),” for “(pH 7.4)”, “area 2×50” for “area 2×40”
as §2

T2 sequence (P33535 whole entry): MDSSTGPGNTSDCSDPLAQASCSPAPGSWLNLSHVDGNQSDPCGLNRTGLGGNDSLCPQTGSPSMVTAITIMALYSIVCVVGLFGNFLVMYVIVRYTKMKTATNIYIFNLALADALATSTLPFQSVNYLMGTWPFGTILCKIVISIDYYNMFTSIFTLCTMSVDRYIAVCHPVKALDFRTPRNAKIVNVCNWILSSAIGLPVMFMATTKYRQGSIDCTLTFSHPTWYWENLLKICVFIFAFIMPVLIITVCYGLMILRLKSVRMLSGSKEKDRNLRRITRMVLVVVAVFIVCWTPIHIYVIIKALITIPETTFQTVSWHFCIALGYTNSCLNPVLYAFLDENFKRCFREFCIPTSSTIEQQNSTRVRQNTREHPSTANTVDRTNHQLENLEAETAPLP
T3 sequence (P33533 whole entry): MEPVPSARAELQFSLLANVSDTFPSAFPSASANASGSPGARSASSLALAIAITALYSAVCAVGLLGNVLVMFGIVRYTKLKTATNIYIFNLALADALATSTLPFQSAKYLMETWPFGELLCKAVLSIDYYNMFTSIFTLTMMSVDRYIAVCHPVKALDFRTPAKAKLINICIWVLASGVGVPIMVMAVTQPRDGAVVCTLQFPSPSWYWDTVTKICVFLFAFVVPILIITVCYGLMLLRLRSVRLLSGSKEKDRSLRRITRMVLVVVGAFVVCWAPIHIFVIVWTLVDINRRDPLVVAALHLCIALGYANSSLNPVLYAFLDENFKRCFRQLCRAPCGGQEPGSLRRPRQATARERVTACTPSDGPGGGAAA
T1 sequence (P32300 whole entry): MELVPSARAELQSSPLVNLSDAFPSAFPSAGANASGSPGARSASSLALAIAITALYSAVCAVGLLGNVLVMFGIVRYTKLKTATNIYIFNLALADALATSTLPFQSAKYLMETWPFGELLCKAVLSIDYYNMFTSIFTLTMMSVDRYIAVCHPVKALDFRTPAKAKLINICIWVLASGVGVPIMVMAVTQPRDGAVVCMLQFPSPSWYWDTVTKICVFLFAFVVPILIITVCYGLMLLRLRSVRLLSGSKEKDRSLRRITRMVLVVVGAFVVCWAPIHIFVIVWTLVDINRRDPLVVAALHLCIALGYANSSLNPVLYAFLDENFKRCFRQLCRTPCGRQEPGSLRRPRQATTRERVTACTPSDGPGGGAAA

Row | SMILES | GTPγS δ-opioid receptor Rel Efficacy (δ-opioid receptor) | inhibition at 10 µM (δ-opioid receptor) | EC50 (δ-opioid receptor) | Ki (mu opioid receptor) | Ki (delta opioid receptor)
1 | COc1ccc(Oc2nc(-c3ccc(OC)nc3)cnc2NC[C@@H]2CCCN2)cc1 [Cpd 1] | 0.8696 | 6.57% | 0.0585 µM | 2.39 µM | 0.0006 µM
2 | COCC#Cc1cnc(NC[C@@H]2CCCN2)c(Oc2ccc(OC)cc2)n1 [Cpd 4] | 0.9477 | 1% | 0.0825 µM | 4.98 µM | 0.0019 µM
3 | COc1ccc(Oc2nc(-c3cncnc3)cnc2NC[C@@H]2CCCN2)cc1F [Cpd 8] | 1.0302 |  | 0.148 µM | 0.202 µM | 0.0008 µM

More lines, now with the values ahead:

Row | GTPγS δ-opioid receptor Rel Efficacy (δ-opioid receptor) | inhibition at 10 µM (δ-opioid receptor) | EC50 (δ-opioid receptor) | Ki (mu opioid receptor) | Ki (delta opioid receptor) | SMILES
4 | 1.0430 | 1% | 0.0297 µM | 0.816 µM | 0.0021 µM | COc1ccc(Oc2nc(-c3cccnc3)cnc2NC[C@@H]2CCCN2)cc1 [Cpd 2, [3-(4-Methoxy-phenoxy)-5-pyridin-3-yl-pyrazin-2-yl]-pyrrolidin-2-(S)-ylmethyl-amine]
5 | 1.0797 | 1% | 0.0462 µM | 3.24 µM | 0.0015 µM | COc1ccc(Oc2nc(C#Cc3cccnc3)cnc2NC[C@@H]2CCCN2)cc1 [Cpd 3, [3-(4-Methoxy-phenoxy)-5-pyridin-3-ylethynyl-pyrazin-2-yl]-pyrrolidin-2-(S)-ylmethyl-amine]

— patent publication US8183371B2, “Pyrazines as delta opioid receptor modulators” (Janssen Pharmaceutica NV, priority 2009, dated 2012)
